According to US11793849B2, “Method of Chinese herbal medicine extract used for treating multiple diseases caused by drug resistant bacteria infection” (priority 2016, dated 2023):
Values after ≈ are worked out from the molar mass of the structure shown. Like-named read-outs stand apart in the source and are kept apart here.

Columns and labels:
MDRAB = assay: MIC determination, microdilution broth method; format: cell-based, Acinetobacter baumannii; conditions: for MIC: read-out: MIC
Method: (§1) Determination methods of a Minimal Inhibitory Concentration (MIC) and a Minimum Bactericidal Concentration (MBC) of a test product: the MIC and the MBC of the Pithecellobium clypearia Benth water or ethanol extract to the MDRAB are determined by a microdilution broth method. And it is operated by referring to the microdilution broth method recommended by National Committee for Clinical Laboratory Standards (NCCLS).

MDRPA = assay: MIC determination, microdilution broth method;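 also: broth microdilution per NCCLS recommendations, testing Pithecellobium clypearia water or ethanol extracts against multidrug-resistant Pseudomonas aeruginosa, with MIC50 and MIC90 derived statistically from individual MICs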
Method: as §1
By determining the MIC and the MBC of the drug and making statistics of the data to obtain MIC50, MIC90, MBC50 and MBC90, the effect of the MDRA resistance of the drug is evaluated.
Test method: the MDRPA (serial No.: P1-P20) strains are tested and are evaluated with reference to the method in the first embodiment.

[1] = single use, 20 MDRABs, EA=10% ethanol extract
[2] = single use, 20 MDRABs, EA=water extract
[3] = single use, 20 MDRABs, section of the 95% ethanol extract
[4] = 20 MDRPAs, EA = 60% ethanol extract
[5] = 20 MDRPAs, EA = 95% ethanol extract
[6] = MDRPAs P1-P20, single use, EA=P. clypearia 10% ethanol extract
[7] = MDRPAs P1-P20, single use, EA=P. clypearia water extract
[8] = single use, 20 MDRPAs, section of the 10% ethanol extract
[9] = single use, 20 MDRPAs, section of the 60% ethanol extract
[10] = single use, 20 MDRPAs, section of the 95% ethanol extract

C[C@@H](O)[C@H]1C(=O)N2C(C(=O)O)=C(SCCN=CN)C[C@H]12 [IMP, imipenem]
MIC (MDRAB; Acinetobacter baumannii, strain A19, single use, EA=10% ethanol extract): 32 µg/mL (≈ 107 µM)
MIC (MDRAB; Acinetobacter baumannii, strain A19, single use, EA=water extract): 32 µg/mL (≈ 107 µM)
MIC (MDRAB; Acinetobacter baumannii, strain A20, EA=60% ethanol extract): 32 µg/mL (≈ 107 µM)
MIC (MDRAB; Acinetobacter baumannii, strain A20, EA=95% ethanol extract): 32 µg/mL (≈ 107 µM)
MIC (MDRAB; Acinetobacter baumannii, strain A20, single use, EA=10% ethanol extract): 32 µg/mL (≈ 107 µM)
MIC (MDRAB; Acinetobacter baumannii, strain A20, single use, EA=water extract): 32 µg/mL (≈ 107 µM)
MIC50 (MDRAB; Acinetobacter baumannii, single use, 20 MDRABs, section of the 60% ethanol extract, read-out: MIC50): 32 µg/mL (≈ 107 µM)
MIC90 (MDRAB; Acinetobacter baumannii, single use, 20 MDRABs, section of the 60% ethanol extract, read-out: MIC90): 32 µg/mL (≈ 107 µM)
MIC50 (MDRAB; MDRABs, EA=60% ethanol extract): 32 µg/mL (≈ 107 µM)
MIC90 (MDRAB; MDRABs, EA=60% ethanol extract): 32 µg/mL (≈ 107 µM)
MIC Range (MDRAB; MDRABs, EA=60% ethanol extract): 1 to 32 µg/mL
MIC50 (MDRAB; MDRABs, EA=95% ethanol extract): 32 µg/mL (≈ 107 µM)
MIC90 (MDRAB; MDRABs, EA=95% ethanol extract): 32 µg/mL (≈ 107 µM)
MIC Range (MDRAB; MDRABs, EA=95% ethanol extract): 1 to 32 µg/mL
MIC50 (MDRAB; [1]): 32 µg/mL (≈ 107 µM)
MIC90 (MDRAB; [1]): 32 µg/mL (≈ 107 µM)
MIC Range (MDRAB; [1]): 1 to 32 µg/mL
MIC50 (MDRAB; [2]): 32 µg/mL (≈ 107 µM)
MIC90 (MDRAB; [2]): 32 µg/mL (≈ 107 µM)
MIC Range (MDRAB; [2]): 1 to 32 µg/mL
MIC50 (MDRAB; [3]): 32 µg/mL (≈ 107 µM)
MIC90 (MDRAB; [3]): 32 µg/mL (≈ 107 µM)
MIC50 (MDRPA; [4]): 32 µg/mL (≈ 107 µM)
MIC90 (MDRPA; [4]): 64 µg/mL (≈ 214 µM)
MIC Range (MDRPA; [4]): 4 to 64 µg/mL
MIC50 (MDRPA; [5]): 32 µg/mL (≈ 107 µM)
MIC90 (MDRPA; [5]): 64 µg/mL (≈ 214 µM)
MIC Range (MDRPA; [5]): 4 to 64 µg/mL
MIC50 (MDRPA; [6]): 32 µg/mL (≈ 107 µM)
MIC90 (MDRPA; [6]): 64 µg/mL (≈ 214 µM)
MIC Range (MDRPA; [6]): 4 to 64 µg/mL
MIC50 (MDRPA; [7]): 32 µg/mL (≈ 107 µM)
MIC90 (MDRPA; [7]): 64 µg/mL (≈ 214 µM)
MIC Range (MDRPA; [7]): 4 to 64 µg/mL
MIC50 (MDRPA; Pseudomonas aeruginosa): 32 µg/mL (≈ 107 µM)
MIC90 (MDRPA; Pseudomonas aeruginosa): 64 µg/mL (≈ 214 µM)
MIC (MDRPA; Pseudomonas aeruginosa, read-out: MIC (single use), strain P1, EA=P. clypearia 10% ethanol extract): 32 µg/mL (≈ 107 µM)
MIC (MDRPA; Pseudomonas aeruginosa, read-out: MIC (single use), strain P1, EA=P. clypearia water extract): 32 µg/mL (≈ 107 µM)
MIC (MDRPA; Pseudomonas aeruginosa, read-out: MIC (single use), strain P2, EA=P. clypearia 10% ethanol extract): 64 µg/mL (≈ 214 µM)
MIC (MDRPA; Pseudomonas aeruginosa, read-out: MIC (single use), strain P2, EA=P. clypearia water extract): 64 µg/mL (≈ 214 µM)
MIC (MDRPA; Pseudomonas aeruginosa, read-out: MIC (single use), strain P3, EA=P. clypearia 10% ethanol extract): 64 µg/mL (≈ 214 µM)
MIC (MDRPA; Pseudomonas aeruginosa, read-out: MIC (single use), strain P3, EA=P. clypearia water extract): 64 µg/mL (≈ 214 µM)
MIC (MDRPA; Pseudomonas aeruginosa, read-out: MIC (single use), strain P4, EA=P. clypearia 10% ethanol extract): 32 µg/mL (≈ 107 µM)
MIC (MDRPA; Pseudomonas aeruginosa, read-out: MIC (single use), strain P4, EA=P. clypearia water extract): 32 µg/mL (≈ 107 µM)
MIC (MDRPA; Pseudomonas aeruginosa, read-out: MIC (single use), strain P5, EA=P. clypearia 10% ethanol extract): 64 µg/mL (≈ 214 µM)
MIC (MDRPA; Pseudomonas aeruginosa, read-out: MIC (single use), strain P5, EA=P. clypearia water extract): 64 µg/mL (≈ 214 µM)
MIC (MDRPA; Pseudomonas aeruginosa, read-out: MIC (single use), strain P6, EA=P. clypearia 10% ethanol extract): 32 µg/mL (≈ 107 µM)
MIC (MDRPA; Pseudomonas aeruginosa, read-out: MIC (single use), strain P6, EA=P. clypearia water extract): 32 µg/mL (≈ 107 µM)
MIC (MDRPA; Pseudomonas aeruginosa, read-out: MIC (single use), strain P7, EA=P. clypearia 10% ethanol extract): 32 µg/mL (≈ 107 µM)
MIC (MDRPA; Pseudomonas aeruginosa, read-out: MIC (single use), strain P7, EA=P. clypearia water extract): 32 µg/mL (≈ 107 µM)
MIC (MDRPA; Pseudomonas aeruginosa, read-out: MIC (single use), strain P8, EA=P. clypearia 10% ethanol extract): 64 µg/mL (≈ 214 µM)
MIC (MDRPA; Pseudomonas aeruginosa, read-out: MIC (single use), strain P8, EA=P. clypearia water extract): 64 µg/mL (≈ 214 µM)
MIC (MDRPA; Pseudomonas aeruginosa, read-out: MIC (single use), strain P9, EA=P. clypearia 10% ethanol extract): 32 µg/mL (≈ 107 µM)
MIC (MDRPA; Pseudomonas aeruginosa, read-out: MIC (single use), strain P9, EA=P. clypearia water extract): 32 µg/mL (≈ 107 µM)
MIC (MDRPA; Pseudomonas aeruginosa, read-out: MIC (single use), strain P10, EA=P. clypearia 10% ethanol extract): 64 µg/mL (≈ 214 µM)
MIC (MDRPA; Pseudomonas aeruginosa, read-out: MIC (single use), strain P10, EA=P. clypearia water extract): 64 µg/mL (≈ 214 µM)
MIC (MDRPA; Pseudomonas aeruginosa, read-out: MIC (single use), strain P11, EA=P. clypearia 10% ethanol extract): 8 µg/mL (≈ 26.7 µM)
MIC (MDRPA; Pseudomonas aeruginosa, read-out: MIC (single use), strain P11, EA=P. clypearia water extract): 8 µg/mL (≈ 26.7 µM)
MIC (MDRPA; Pseudomonas aeruginosa, read-out: MIC (single use), strain P12, EA=P. clypearia 10% ethanol extract): 32 µg/mL (≈ 107 µM)
MIC (MDRPA; Pseudomonas aeruginosa, read-out: MIC (single use), strain P12, EA=P. clypearia water extract): 32 µg/mL (≈ 107 µM)
MIC (MDRPA; Pseudomonas aeruginosa, read-out: MIC (single use), strain P13, EA=P. clypearia 10% ethanol extract): 8 µg/mL (≈ 26.7 µM)
MIC (MDRPA; Pseudomonas aeruginosa, read-out: MIC (single use), strain P13, EA=P. clypearia water extract): 8 µg/mL (≈ 26.7 µM)
MIC (MDRPA; Pseudomonas aeruginosa, read-out: MIC (single use), strain P14, EA=P. clypearia 10% ethanol extract): 32 µg/mL (≈ 107 µM)
MIC (MDRPA; Pseudomonas aeruginosa, read-out: MIC (single use), strain P14, EA=P. clypearia water extract): 32 µg/mL (≈ 107 µM)
MIC (MDRPA; Pseudomonas aeruginosa, read-out: MIC (single use), strain P15, EA=P. clypearia 10% ethanol extract): 32 µg/mL (≈ 107 µM)
MIC (MDRPA; Pseudomonas aeruginosa, read-out: MIC (single use), strain P15, EA=P. clypearia water extract): 32 µg/mL (≈ 107 µM)
MIC (MDRPA; Pseudomonas aeruginosa, read-out: MIC (single use), strain P16, EA=P. clypearia 10% ethanol extract): 16 µg/mL (≈ 53.4 µM)
MIC (MDRPA; Pseudomonas aeruginosa, read-out: MIC (single use), strain P16, EA=P. clypearia water extract): 16 µg/mL (≈ 53.4 µM)
MIC (MDRPA; Pseudomonas aeruginosa, read-out: MIC (single use), strain P17, EA=P. clypearia 10% ethanol extract): 16 µg/mL (≈ 53.4 µM)
MIC (MDRPA; Pseudomonas aeruginosa, read-out: MIC (single use), strain P17, EA=P. clypearia water extract): 16 µg/mL (≈ 53.4 µM)
MIC (MDRPA; Pseudomonas aeruginosa, read-out: MIC (single use), strain P18, EA=P. clypearia 10% ethanol extract): 32 µg/mL (≈ 107 µM)
MIC (MDRPA; Pseudomonas aeruginosa, read-out: MIC (single use), strain P18, EA=P. clypearia water extract): 32 µg/mL (≈ 107 µM)
MIC (MDRPA; Pseudomonas aeruginosa, read-out: MIC (single use), strain P19, EA=P. clypearia 10% ethanol extract): 64 µg/mL (≈ 214 µM)
MIC (MDRPA; Pseudomonas aeruginosa, read-out: MIC (single use), strain P19, EA=P. clypearia water extract): 64 µg/mL (≈ 214 µM)
MIC (MDRPA; Pseudomonas aeruginosa, read-out: MIC (single use), strain P20, EA=P. clypearia 10% ethanol extract): 4 µg/mL (≈ 13.4 µM)
MIC (MDRPA; Pseudomonas aeruginosa, read-out: MIC (single use), strain P20, EA=P. clypearia water extract): 4 µg/mL (≈ 13.4 µM)
MIC50 (MDRPA; [8]): 32 µg/mL (≈ 107 µM)
MIC90 (MDRPA; [8]): 64 µg/mL (≈ 214 µM)
MIC50 (MDRPA; [9]): 32 µg/mL (≈ 107 µM)
MIC90 (MDRPA; [9]): 64 µg/mL (≈ 214 µM)
MIC50 (MDRPA; [10]): 32 µg/mL (≈ 107 µM)
MIC90 (MDRPA; [10]): 64 µg/mL (≈ 214 µM)
